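Five compound concentrations were applied to cells in 96-well plates for 48 hours; endpoints were derived by simple linear interpolation of the resulting dose-response curve. GI50 is the concentration that inhibits growth by half. The concentration for full growth arrest is given as TGI.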
Experiments:
Assay in all cases: DTP human tumour cell line panel, 48 h
MALME-3M melanoma = system: MALME-3M melanoma
MDA-N = system: MDA-N
NCI-H226 lung = system: NCI-H226 lung
NCI-H522 lung = system: NCI-H522 lung
NCI/ADR-RES ovarian = system: NCI/ADR-RES ovarian
OVCAR-3 ovarian = system: OVCAR-3 ovarian
OVCAR-8 ovarian = system: OVCAR-8 ovarian
SF-295 CNS = system: SF-295 CNS
SK-MEL-2 melanoma = system: SK-MEL-2 melanoma
SR leukemia = system: SR leukemia
U251 CNS = system: U251 CNS
HT29 colon = system: HT29 colon
IGROV1 ovarian = system: IGROV1 ovarian

SMILES	TGI (MALME-3M melanoma)	TGI (MDA-N)	TGI (NCI-H226 lung)	TGI (NCI-H522 lung)	TGI (NCI/ADR-RES ovarian)	TGI (OVCAR-3 ovarian)	TGI (OVCAR-8 ovarian)	TGI (SF-295 CNS)	TGI (SK-MEL-2 melanoma)	TGI (SR leukemia)	TGI (U251 CNS)	TGI (HT29 colon)	TGI (IGROV1 ovarian)	GI50 (SR leukemia)
NS(=O)(=O)c1nnc(NC(=O)C23CC4CC(CC(C4)C2)C3)s1	> 100 µM	> 100 µM	> 100 µM	> 100 µM	> 100 µM	> 100 µM	> 100 µM	> 100 µM	> 100 µM	> 100 µM	> 100 µM	–	–	–
CCOC(=O)/C=C(\C(=O)OCC)n1ccc(=O)n(Cc2cnnn2CCCCOC(C)=O)c1=O	3.84 µM	51.4 µM	39.4 µM	3.05 µM	40.1 µM	21.5 µM	13.9 µM	> 59.8 µM	36.3 µM	5.49 µM	> 59.3 µM	23.5 µM	28.4 µM	1.68 µM
COC(=O)C1Cc2ccc(O)c(O)c2CN1 (stereo not drawn)	98.7 µM	30.8 µM	> 100 µM	> 100 µM	48.6 µM	> 100 µM	–	20.4 µM	31.2 µM	82.2 µM	31.2 µM	55.7 µM	> 100 µM	–
CC(O)C1(CNc2cc(Cl)nc(N)n2)CCCCC1 (stereo not drawn)	> 100 µM	> 100 µM	> 100 µM	> 100 µM	> 100 µM	> 100 µM	> 100 µM	> 100 µM	> 100 µM	> 100 µM	> 100 µM	> 100 µM	> 100 µM	–
CC(=O)Oc1cc(S(=O)(=O)Nc2n[nH]c(Nc3ccc(C)cc3)n2)c(S)cc1Cl	> 100 µM	> 100 µM	–	> 100 µM	> 100 µM	> 100 µM	> 100 µM	> 100 µM	> 100 µM	> 100 µM	> 100 µM	> 100 µM	> 100 µM	–
CCOC(=O)NN(C(=O)OCC)C(C(=O)C1=CCCCC1)N(NC(=O)OCC)C(=O)OCC	> 100 µM	> 100 µM	> 100 µM	> 100 µM	> 100 µM	> 100 µM	> 100 µM	> 100 µM	> 100 µM	> 100 µM	> 100 µM	> 100 µM	> 100 µM	–
CCc1c2c(cc3c1CC1(C3)Cc3cc4c(c(C(=O)OC)c3C1)CCCC4)CCCC2 (stereo not drawn)	> 100 µM	> 100 µM	> 100 µM	> 100 µM	> 100 µM	> 100 µM	> 100 µM	> 100 µM	> 100 µM	> 100 µM	> 100 µM	> 100 µM	> 100 µM	–
COc1cc(-c2nc3ccc(N4CCN(C)CC4)cc3[nH]2)c(OC)c2[nH]c(COC(C)=O)nc12	63.8 µM	> 100 µM	> 100 µM	> 100 µM	> 100 µM	> 100 µM	> 100 µM	> 100 µM	> 100 µM	73 µM	> 100 µM	> 100 µM	> 100 µM	–
CCCCn1c(CSc2ccc(Cl)cc2)c(C(=O)OCC)c2cc(OC)c(Br)cc21	> 100 µM	> 100 µM	> 100 µM	> 100 µM	> 100 µM	> 100 µM	> 100 µM	> 100 µM	> 100 µM	> 100 µM	> 100 µM	–	> 100 µM	–
